Results taken from US10004701B2, “Methods and compositions for treating infection” (UNIVERSITY OF ROCHESTER, priority 2012, dated 2018).
Structures can show the parent of a compound that is named as a salt. Where two headings read alike, the source gives them in different places.

Assays:
Assay in all cases: AK assay 384-well format, Prestwick library screening
[1] = test system: S. aureus strain USA300-0114; format: cell-based, Staphylococcus aureus; conditions: for fold induction at 50 µM: Staphylococcus aureus, USA300, 3 h
[2] = test system: A. baumannii strain 98-37-09; format: cell-based, Acinetobacter baumannii; conditions: for fold induction at 50 µM: Acinetobacter baumannii, 983709, 3 h
E. coli = format: cell-based, Escherichia coli; conditions: for fold induction at 50 µM: Escherichia coli, 3 h
K. pneumoniae = format: cell-based, Klebsiella pneumoniae; conditions: for fold induction at 50 µM: Klebsiella pneumoniae, 3 h
E. faecium = format: cell-based, Enterococcus faecium; conditions: for fold induction at 50 µM: Enterococcus faecium, 3 h
P. aeruginosa = format: cell-based, Pseudomonas aeruginosa; conditions: for fold induction at 50 µM: Pseudomonas aeruginosa, 3 h
E. cloacae = format: cell-based, Enterobacter cloacae; conditions: for fold induction at 50 µM: Enterobacter cloacae, 3 h
[3] = 50 μM final drug concentration, cutoff for positive-scoring molecules 3-fold increase, read-out: AK-based Prestwick Library Screening Results, S. aureus (fold increase in extracellular AK activity)
[4] = 50 μM final drug concentration, cutoff for positive-scoring molecules 3-fold increase, read-out: AK-based Prestwick Library Screening Results, A. baumannii (fold increase in extracellular AK activity)
[5] = 50 μM final drug concentration, cutoff for positive-scoring molecules 3-fold increase, read-out: AK-based Prestwick Library Screening Results, E. coli (fold increase in extracellular AK activity)
[6] = 50 μM final drug concentration, cutoff for positive-scoring molecules 3-fold increase, read-out: AK-based Prestwick Library Screening Results, K. pneumoniae (fold increase in extracellular AK activity)
[7] = 50 μM final drug concentration, cutoff for positive-scoring molecules 3-fold increase, read-out: AK-based Prestwick Library Screening Results, E. faecium (fold increase in extracellular AK activity)
[8] = 50 μM final drug concentration, cutoff for positive-scoring molecules 3-fold increase, read-out: AK-based Prestwick Library Screening Results, P. aeruginosa (fold increase in extracellular AK activity)
[9] = 50 μM final drug concentration, cutoff for positive-scoring molecules 3-fold increase, read-out: AK-based Prestwick Library Screening Results, E. cloacae (fold increase in extracellular AK activity)
[10] = 50 μM final drug concentration, planktonic, cutoff for positive 3-fold increase
[11] = 50 μM final drug concentration, 384-well format, cutoff for positive-scoring molecules 3-fold increase, read-out: AK-based Prestwick Library Screening Results, S. aureus (increase in extracellular AK activity)
[12] = 50 μM final drug concentration, 384-well format, cutoff for positive-scoring molecules 3-fold increase, read-out: AK-based Prestwick Library Screening Results, A. baumannii (increase in extracellular AK activity)
[13] = 50 μM final drug concentration, 384-well format, cutoff for positive-scoring molecules 3-fold increase, read-out: AK-based Prestwick Library Screening Results, E. coli (increase in extracellular AK activity)
[14] = 50 μM final drug concentration, 384-well format, cutoff for positive-scoring molecules 3-fold increase, read-out: AK-based Prestwick Library Screening Results, K. pneumoniae (increase in extracellular AK activity)
[15] = 50 μM final drug concentration, 384-well format, cutoff for positive-scoring molecules 3-fold increase, read-out: AK-based Prestwick Library Screening Results, E. faecium (increase in extracellular AK activity)
[16] = 50 μM final drug concentration, 384-well format, cutoff for positive-scoring molecules 3-fold increase, read-out: AK-based Prestwick Library Screening Results, P. aeruginosa (increase in extracellular AK activity)
[17] = 50 μM final drug concentration, 384-well format, cutoff for positive-scoring molecules 3-fold increase, read-out: AK-based Prestwick Library Screening Results, E. cloacae (increase in extracellular AK activity)

`Oc1c(I)cc(Cl)c2cccnc12` [Clioquinol] was tested, and the fold induction at 50 µM ([1]; 50 μM final drug concentration, planktonic, cutoff for positive-scoring molecules 3-fold increase, read-out: AK-based Prestwick Library Screening Results, S. aureus (fold increase in extracellular AK activity)) was 0.2, the fold induction at 50 µM ([2]; 50 μM final drug concentration, planktonic, cutoff for positive-scoring molecules 3-fold increase, read-out: AK-based Prestwick Library Screening Results, A. baumannii (fold increase in extracellular AK activity)) was 1.1 and the fold induction at 50 µM (E. coli; 50 μM final drug concentration, planktonic, cutoff for positive-scoring molecules 3-fold increase, read-out: AK-based Prestwick Library Screening Results, E. coli (fold increase in extracellular AK activity)) was 0.5. The fold induction at 50 µM (K. pneumoniae; 50 μM final drug concentration, planktonic, cutoff for positive-scoring molecules 3-fold increase, read-out: AK-based Prestwick Library Screening Results, K. pneumoniae (fold increase in extracellular AK activity)) was 0.6, the fold induction at 50 µM (E. faecium; 50 μM final drug concentration, planktonic, cutoff for positive-scoring molecules 3-fold increase, read-out: AK-based Prestwick Library Screening Results, E. faecium (fold increase in extracellular AK activity)) was 0.9 and the fold induction at 50 µM (P. aeruginosa; 50 μM final drug concentration, planktonic, cutoff for positive-scoring molecules 3-fold increase, read-out: AK-based Prestwick Library Screening Results, P. aeruginosa (fold increase in extracellular AK activity)) was 0.4. For the same compound, the fold induction at 50 µM (E. cloacae; 50 μM final drug concentration, planktonic, cutoff for positive-scoring molecules 3-fold increase, read-out: AK-based Prestwick Library Screening Results, E. cloacae (fold increase in extracellular AK activity)) was 0.5.
`CCC(=O)O[C@]1(C(=O)CCl)[C@@H](C)C[C@H]2[C@@H]3CCC4=CC(=O)C=C[C@]4(C)[C@@]3(F)[C@@H](O)C[C@@]21C` [Clobetasol propionate] showed a fold induction at 50 µM [1, 3] of 0.9, a fold induction at 50 µM [2, 4] of 1.3 and a fold induction at 50 µM (E. coli; [5]) of 1.2. It also gave a fold induction at 50 µM (K. pneumoniae; [6]) of 1, a fold induction at 50 µM (E. faecium; [7]) of 1 and a fold induction at 50 µM (P. aeruginosa; [8]) of 1.1. The fold induction at 50 µM (E. cloacae; [9]) was 1.3.
In the case of `C[C@@H]1C[C@H]2[C@@H]3C[C@H](F)C4=CC(=O)C=C[C@]4(C)[C@@]3(Cl)[C@@H](O)C[C@]2(C)[C@H]1C(=O)COC(=O)C(C)(C)C` [Clocortolone pivalate], the fold induction at 50 µM ([1]; planktonic S. aureus, 50 μM final drug concentration, positive cutoff 3-fold increase, read-out: AK-based Prestwick library screening result, S. aureus (fold increase in extracellular AK activity)) is reported as 1.1, the fold induction at 50 µM ([2]; planktonic A. baumannii, 50 μM final drug concentration, positive cutoff 3-fold increase, read-out: AK-based Prestwick library screening result, A. baumannii (fold increase in extracellular AK activity)) is reported as 1.2 and the fold induction at 50 µM (E. coli; planktonic E. coli, 50 μM final drug concentration, positive cutoff 3-fold increase, read-out: AK-based Prestwick library screening result, E. coli (fold increase in extracellular AK activity)) is reported as 1. For the same compound, the fold induction at 50 µM (K. pneumoniae; planktonic K. pneumoniae, 50 μM final drug concentration, positive cutoff 3-fold increase, read-out: AK-based Prestwick library screening result, K. pneumoniae (fold increase in extracellular AK activity)) was 1, the fold induction at 50 µM (E. faecium; planktonic E. faecium, 50 μM final drug concentration, positive cutoff 3-fold increase, read-out: AK-based Prestwick library screening result, E. faecium (fold increase in extracellular AK activity)) was 1.1 and the fold induction at 50 µM (P. aeruginosa; planktonic P. aeruginosa, 50 μM final drug concentration, positive cutoff 3-fold increase, read-out: AK-based Prestwick library screening result, P. aeruginosa (fold increase in extracellular AK activity)) was 1. It also gave a fold induction at 50 µM (E. cloacae; planktonic E. cloacae, 50 μM final drug concentration, positive cutoff 3-fold increase, read-out: AK-based Prestwick library screening result, E. cloacae (fold increase in extracellular AK activity)) of 1.6.
`CC(C)/N=c1\cc2n(-c3ccc(Cl)cc3)c3ccccc3nc-2cc1Nc1ccc(Cl)cc1` [Clofazimine, clofazimine, reference compound] was tested, and the “activity in AK Prestwick screen” value ([1]; S. aureus USA300-0114, 50 μM, cutoff 3-fold increase in AK) was “active”, the fold induction at 50 µM ([1]; 50 μM final drug concentration, planktonic, cutoff for positive 3-fold increase, read-out: AK-based Prestwick Library Screening Results, S. aureus (fold increase in extracellular AK activity)) was 4.6 and the fold induction at 50 µM ([2]; 50 μM final drug concentration, planktonic, cutoff for positive 3-fold increase, read-out: AK-based Prestwick Library Screening Results, A. baumannii (fold increase in extracellular AK activity)) was 5. The fold induction at 50 µM (E. coli; 50 μM final drug concentration, planktonic, cutoff for positive 3-fold increase, read-out: AK-based Prestwick Library Screening Results, E. coli (fold increase in extracellular AK activity)) was 1.2, the fold induction at 50 µM (K. pneumoniae; 50 μM final drug concentration, planktonic, cutoff for positive 3-fold increase, read-out: AK-based Prestwick Library Screening Results, K. pneumoniae (fold increase in extracellular AK activity)) was 1.1 and the fold induction at 50 µM (E. faecium; 50 μM final drug concentration, planktonic, cutoff for positive 3-fold increase, read-out: AK-based Prestwick Library Screening Results, E. faecium (fold increase in extracellular AK activity)) was 1. It also gave a fold induction at 50 µM (P. aeruginosa; 50 μM final drug concentration, planktonic, cutoff for positive 3-fold increase, read-out: AK-based Prestwick Library Screening Results, P. aeruginosa (fold increase in extracellular AK activity)) of 1 and a fold induction at 50 µM (E. cloacae; 50 μM final drug concentration, planktonic, cutoff for positive 3-fold increase, read-out: AK-based Prestwick Library Screening Results, E. cloacae (fold increase in extracellular AK activity)) of 1.8.
For `CC(C)(Oc1ccc(Cl)cc1)C(=O)O` [Clofibric acid], the fold induction at 50 µM [1, 3] was 1.4, the fold induction at 50 µM [2, 4] was 1.3 and the fold induction at 50 µM (E. coli; [5]) was 1.2. For the same compound, the fold induction at 50 µM (K. pneumoniae; [6]) was 1.1, the fold induction at 50 µM (E. faecium; [7]) was 1.1 and the fold induction at 50 µM (P. aeruginosa; [8]) was 1.2. The fold induction at 50 µM (E. cloacae; [9]) was 1.5.
For `CCN(CC)CCOc1ccc(C(=C(Cl)c2ccccc2)c2ccccc2)cc1.O=C(O)CC(O)(CC(=O)O)C(=O)O` [Clomiphene citrate (Z,E)], the “AK-based Prestwick Library Screening Results, S. aureus (fold increase in extracellular AK activity)” value [1, 10] was 2.0, the “AK-based Prestwick Library Screening Results, A. baumannii (fold increase in extracellular AK activity)” value [2, 10] was 5.4 and the “AK-based Prestwick Library Screening Results, E. coli (fold increase in extracellular AK activity)” value (E. coli; [10]) was 1.8. For the same compound, the “AK-based Prestwick Library Screening Results, K. pneumoniae (fold increase in extracellular AK activity)” value (K. pneumoniae; [10]) was 1.6, the “AK-based Prestwick Library Screening Results, E. faecium (fold increase in extracellular AK activity)” value (E. faecium; [10]) was 4.4 and the “AK-based Prestwick Library Screening Results, P. aeruginosa (fold increase in extracellular AK activity)” value (P. aeruginosa; [10]) was 1.4. The “AK-based Prestwick Library Screening Results, E. cloacae (fold increase in extracellular AK activity)” value (E. cloacae; [10]) was 1.9.
Compound `CN(C)CCCN1c2ccccc2CCc2ccc(Cl)cc21` [Clomipramine hydrochloride] has a fold induction at 50 µM [1, 11] of 0.8, a fold induction at 50 µM [2, 12] of 1 and a fold induction at 50 µM (E. coli; [13]) of 1.1. For the same compound, the fold induction at 50 µM (K. pneumoniae; [14]) was 0.7, the fold induction at 50 µM (E. faecium; [15]) was 1.1 and the fold induction at 50 µM (P. aeruginosa; [16]) was 0.9. For the same compound, the fold induction at 50 µM (E. cloacae; [17]) was 1.
`Clc1cccc(Cl)c1N=C1NCCN1` [Clonidine hydrochloride] showed a fold induction at 50 µM [1, 11] of 0.5, a fold induction at 50 µM [2, 12] of 0.6 and a fold induction at 50 µM (E. coli; [13]) of 0.5. For the same compound, the fold induction at 50 µM (K. pneumoniae; [14]) was 0.5, the fold induction at 50 µM (E. faecium; [15]) was 0.9 and the fold induction at 50 µM (P. aeruginosa; [16]) was 0.5. It also gave a fold induction at 50 µM (E. cloacae; [17]) of 0.6.
`Cc1c(Cl)cccc1Nc1ncccc1C(=O)O.NCCCC[C@H](N)C(=O)O` [Clonixin Lysinate] was tested, and the “AK-based Prestwick library screening result, S. aureus (fold increase in extracellular AK activity)” value [1] was 1.2, the “AK-based Prestwick library screening result, A. baumannii (fold increase in extracellular AK activity)” value [2] was 1.4 and the “AK-based Prestwick library screening result, E. coli (fold increase in extracellular AK activity)” value (E. coli) was 1.0. For the same compound, the “AK-based Prestwick library screening result, K. pneumoniae (fold increase in extracellular AK activity)” value (K. pneumoniae) was 1.1, the “AK-based Prestwick library screening result, E. faecium (fold increase in extracellular AK activity)” value (E. faecium) was 0.9 and the “AK-based Prestwick library screening result, P. aeruginosa (fold increase in extracellular AK activity)” value (P. aeruginosa) was 1.0. For the same compound, the “AK-based Prestwick library screening result, E. cloacae (fold increase in extracellular AK activity)” value (E. cloacae) was 1.5.
